Several values for one entry are separate records, joined by “and”; a condition that tells them apart may be missing. Equal values may be shown once. Read-outs that look alike come from different tables or passages of the source. One block for each molecule: values may come before it.
Assays:
L1210 = test: In vitro cytotoxic activity; format: cell-based
[1] = Solvolysis reactivity (UV, 50% CH3OH-aqueous buffer, pH 3); format: physicochemical; conditions: for k, solvolysis rate constant: pH 3, 25° C., CH3OH/aqueous buffer
Protocol: The solvolysis was followed spectrophotometrically by UV with the disappearance of the long-wavelength absorption band of the iso-CBI chromophore (397 nm), FIG. 3.
Solvolysis Reactivity: N-BOC-iso-CBI (31, 0.2 mg) was dissolved in CH3OH (1.5 mL) and mixed with pH 3 aqueous buffer (1.5 mL). The buffer contained 4:1:20 (v/v/v) 0.1 M citric acid, 0.2 M Na2HPO4, and H2O, respectively. The solvolysis solution was sealed and kept at 25° C. protected from light. The UV spectrum was measured at regular intervals every 1 h during the first 24 h, every 4 during the next 72 h, and every 12 h for an additional week. The decrease in the long wavelength absorption at 397 nm was monitored, FIG. 3. […] (FIG. 9).
Similarly, N—CO2Me-iso-CBI (33, 0.2 mg) was dissolved in CH3OH (1.5 mL) and mixed with pH 3 aqueous buffer (1.5 mL). The solvolysis solution was sealed and kept at 25° C. protected from light. The UV spectrum was measured at regular intervals every 1 h during the first 24 h, every 4 h during the next 72 h, and every 12 h for an additional week. The decrease in the long wavelength absorption at 395 nm was monitored, FIG. 3.
Similarly, 35 (0.2 mg) was dissolved in CH3OH (1.5 mL) and mixed with pH 3 aqueous buffer (1.5 mL). The solvolysis solution was sealed and kept at 25° C. protected from light. The UV spectrum was measured at regular intervals every 1 h during the first 12 h, every 2 h for the next 24 h, and every 4 h for an additional day. The decrease in the short wavelength absorption at 239 nm was monitored, FIG. 9.

[2] = Stability of neat sample to ambient light and storage; format: physicochemical; conditions: 48 h
Protocol: Exclusive spirocyclization with cyclopropane formation was observed, and no competitive O-alkylation leading to 36 was detected. However, prolonged exposure of neat 31 to ambient light at 25° C. […] Thus, the handling and storage of the iso-CBI based agents were conducted minimizing their exposure to light typically at subzero temperatures.

[3] = system: w794 DNA (SV40 DNA segment, 144 bp); test: DNA alkylation selectivity and efficiency, thermally-induced strand cleavage of w794 DNA; format: biochemical
Protocol: FIG. 5 illustrates thermally-induced strand cleavage of w794 DNA (SV40 DNA segment, 144 bp, nucleotide nos. 138-5238); DNA-agent incubation for 24 hours at 25° C., removal of unbound agent and 30 minutes of thermolysis (100° C.), followed by denaturing 8% PAGE and autoradiography, lane 1, control DNA; lanes 2-5, Sanger G, C, A, and T sequencing reactions; lanes 6-7 (−)-iso-CBI-TMI (1×10^−3 and 1×10^−4 M); lanes 8-9, (+)-CBI-TMI (1×10^−5 and 1×10^−4 M); lanes 10-11, (+)-duocarmycin SA (1×10^−5 and 1×10^−6).
FIG. 7 illustrates thermally-induced strand cleavage of w794 DNA (SV40 DNA segment, 144 bp, nucleotide nos. 138-5238); DNA-agent incubation for 24 h at 25° C., removal of unbound agent and 30 min of thermolysis (100° C.), followed by denaturing 8% PAGE and autoradiography; lane 1, control DNA; lanes 2-5, Sanger G, C, A, and T sequencing reactions; lanes 6-8 (+)-duocarmycin SA (1×10^−4 to 1×10^−6 M); lanes9-11, seco-iso-CI-TMI (1×10^−3 to 1×10^−5 M).
DNA Alkylation Selectivity and Efficiency: The DNA alkylation properties of the agents were examined within w794 and w836 duplex DNA for which comparative results are available for related agents. (Boger, D. L., et al., J. Am. Chem. Soc. 1994, 116, 11335; Boger, D. L., et al., J. Am. Chem. Soc. 1994, 116, 6461; and Boger, D. L., et al., J. Am. Chem. Soc. 1995, 117, 11647) The alkylation site identification and the assessment of the relative selectivity among the available sites were obtained by thermally-induced strand cleavage of the singly 5′ end-labeled duplex DNA after exposure to the agents. Following treatment of the end-labeled duplex DNA with a range of agent concentrations and temperatures in the dark, the unbound agent was removed by EtOH precipitation of the DNA Redissolution of the DNA in aqueous buffer, thermolysis (100° C., 30 min) to induce strand cleavage at the sites of DNA alkylation, denaturing high-resolution polyacrylamide gel electrophoresis (PAGE) adjacent to Sanger dideoxynucleotide sequencing standards, and autoradiography led to identification of the DNA cleavage and alkylation sites. The full details of this procedure have been disclosed elsewhere. (Boger, D. L., et al., Tetrahedron 1991, 47, 2661.)
DNA Alkylation Studies: Selectivity and Efficiency: Eppendorf tubes containing singly ^32p 5′-end-labeled double-stranded DNA (9 μL) (Boger, D. L., et al., Tetrahedron 1991, 47, 2661.) in TE buffer (10 mM Tris, 1 mM EDTA, pH 7.5) were treated with the agents in DMSO (1 μL, at the specified concentrations). The solutions were mixed by vortexing and brief centrifugation and subsequently incubated at 4° C., 25° C. or 37° C. for 24-72 h. […]

calf thymus DNA = test: Calf thymus DNA alkylation, quantitation of adenine N3 adduct; format: biochemical; conditions: 4° C.
Protocol: This was addressed through a study of the alkylation of calf thymus DNA. Optimized conditions for the alkylation were established for (−)-44 on an analytical scale (100 μg of agent). For this purpose, the long-wavelength UV absorption of the agent and the adduct provided a useful quantitative measure of the adenine adduct, unreacted starting material and any side products (solvolysis or rearrangement), Table 3. Analytical HPLC analysis was used to confirm the identity of the products through correlation of retention times and UV spectral data with authentic materials. The preparative DNA alkylation reaction and subsequent isolation of (+)-66 was carried out under conditions determined to provide complete consumption of the agent in the presence of a large excess of DNA Thus, extraction (EtOAc) of the aqueous buffer solution containing calf thymus DNA following alkylation (4° C., 72 h, 150 bp) afforded no recovered (−)-44, and only a small amount (<5%) of the rearranged product 65. Conducting the reaction at 4° C. in the presence of a large excess of DNA precluded competitive solvolysis. Thermal treatment of the alkylated DNA in aqueous 10 mM sodium phosphate buffer (100° C., 30 min, pH 7.0) followed by EtOAc extraction provided 66 in 90-95% conversion, ≧95% purity (by HPLC). Repeating this thermal treatment provided little or no additional adduct. No trace of a competing guanine adduct could be detected. This high conversion to a single adduct established that 44 participates exclusively in the adenine N3 alkylation reaction under the conditions examined.

[4] = pH 3; comparison agents 55-61; cited from earlier work
[5] = cytotoxic activity, read-out: IC50
[6] = L1210, seco precursor, read-out: IC50, L1210

Molecule: 2-[((E)-3-(2-Methoxyphenyl)propenyl)carbonyl]-1,2,9,9a-tetrahydrocyclopropa[c]benzo[f]indol-1-one [compound 48]
cytotoxic potency, less potent than 44 and 46 (L1210): 40-50 ×

solvolysis reactivity relative to N-BOC-CBI / corresponding CBI-based agents (more reactive, less stable) ([1]; pH 3): 5 ×
k, solvolysis rate constant [1]: 6.98e-06 s⁻¹ and 6.97e-06 s⁻¹
stability of neat sample protected from light ([2]; protected from light by foil): remained unchanged
Molecule: CC(C)(C)OC(=O)N1CC2CC23C(=O)c2ccccc2C=C13 (racemic) [compound 31, 2-(tert-Butyloxycarbonyl)-1,2,9,9a-tetrahydrocyclopropa[c]benzo[f]indol-8-one]
cytotoxic potency of unnatural enantiomer relative to natural enantiomer (slightly more potent) (L1210): 1-2 ×
stability of neat sample exposed to ambient light ([2]; ambient light, 25° C.): carbonylcyclopropane rearrangement to form 36

k, solvolysis rate constant [1]: 6.4e-06 s⁻¹
Molecule: COC(=O)N1CC2CC23C(=O)c2ccccc2C=C13 (racemic) [compound 33, 2-(Methoxycarbonyl)-1,2,9,9a-tetrahydrocyclopropa[c]benzo[f]indol-8-one]

Molecule: COc1cc2cc(C(=O)N3CC4CC45C(=O)c4ccccc4C=C35)[nH]c2c(OC)c1OC (racemic) [compound 44, 2-[(5,6,7-Trimethoxyindol-2-yl)carbonyl]-1,2,9,9a-tetrahydrocyclopropa[c]benzo[f]indol-8-one]
cytotoxic potency, 44 compared with 46 (L1210): equipotent
DNA alkylation sequence selectivity compared with (+)-duocarmycin SA [3]: same sequence selectivity
adenine adduct 66 (calf thymus DNA; 72 h, 75 base-pair equiv, analytical scale, HPLC/UV): 94%
adenine adduct 66 (calf thymus DNA; 72 h, 150 base-pair equiv, analytical scale, HPLC/UV): 95%
adenine adduct 66 (calf thymus DNA; 72 h, 150 base-pair equiv, preparative scale, isolation and weight): 92%
adenine adduct 66 (calf thymus DNA; 120 h, 150 base-pair equiv, preparative scale, isolation and weight): 95%

Molecule: COc1ccc2[nH]c(C(=O)N3CC4CC45C(=O)c4ccccc4C=C35)cc2c1 (racemic) [compound 46, 2-[(5-Methoxyindol-2-yl)carbonyl]-1,2,9,9a-tetrahydrocyclopropa[c]benzo[f]indol-8-one]
cytotoxic potency, 44 compared with 46 (L1210): equipotent

Molecule: NC(=O)N1CCc2c1ccc1[nH]c(C(=O)N3CC4CC45C(=O)c4ccccc4C=C35)cc21 (racemic) [compound 52, 2-[(3-Carbamoyl-1,2-dihydro-3H-pyrrolo[3,2-e]indol-7-yl)carbonyl]-2,9,9a-tetrahydrocyclopropa[c]benzo[f]indol-8-one]
IC50 (L1210; [5]): 0.2 nM

Molecule: NC(=O)N1CCc2c1ccc1[nH]c(C(=O)N3CCc4c3ccc3[nH]c(C(=O)N5CC6CC67C(=O)c6ccccc6C=C57)cc43)cc21 (racemic) [compound 54, 2-{[3-[N-(3-Carbamoyl-1,2-dihydro-3H-pyrrolo[3,2-e]indol-7-yl)carbonyl]-1,2-dihydro-3H-pyrrolo[3,2-e]indol-7-yl]carbonyl}-1,2,9,9a-tetrahydrocyclopropa[c]benzo[f]indol-1-one]
IC50 (L1210; [5]): 0.05 nM

Molecule: COc1ccc2c(c1)C13CC1CN(C(=O)OC(C)(C)C)C3=CC2=O (racemic) [compound 59]
k, solvolysis rate constant [4]: 1.75e-06 s⁻¹

Molecule: CC(C)(C)OC(=O)N1CC2CC23C1=CC(=O)c1ccc(C#N)cc13 (racemic) [compound 60]
k, solvolysis rate constant [4]: 9.9e-07 s⁻¹

Molecule: CC(C)(C)OC(=O)N1CC2CC23C=CC(=O)C=C13 (racemic) [compound 61]
k, solvolysis rate constant [4]: 0.0198 s⁻¹

Molecule: CC(C)(C)OC(=O)N1CC(COS(C)(=O)=O)c2c(O)cccc21 (stereo not shown) [compound 19]
IC50 (L1210; [6]): 10000 nM

Molecule: COc1cc2cc(C(=O)N3CC(COS(C)(=O)=O)c4c(O)cccc43)[nH]c2c(OC)c1OC (stereo not shown) [compound 20]
IC50 (L1210; [6]): 6 nM
DNA alkylation efficiency, less efficient than (+)-duocarmycin SA ([3]; 24 h, 25° C., seco agent): 10 ×

solvolysis reactivity relative to 31 or 33 (more reactive) ([1]; pH 3): 5-6 ×
k, solvolysis rate constant [1]: 3.8e-05 s⁻¹
Molecule: O=C1C2=NCC3CC23C(=O)c2ccccc21 (stereo not shown) [compound 35, 9,9a-1H-Dihydrocyclopropa[c]benzo[f]indol-3,8-dione]

Molecule: Cc1c[nH]c2c1C13CC1CN(C(=O)OC(C)(C)C)C3=CC2=O (stereo not shown) [compound 55]
k, solvolysis rate constant [4]: 5.26e-06 s⁻¹

Molecule: COC(=O)C1(C)NC2=C(C1=O)C13CC1CN(C(=O)OC(C)(C)C)C3=CC2=O (stereo not shown) [compound 56]
k, solvolysis rate constant [4]: 1.75e-05 s⁻¹

Molecule: COC(=O)c1cc2c([nH]1)C(=O)C=C1N(C(=O)OC(C)(C)C)CC3CC123 (stereo not shown) [compound 57]
k, solvolysis rate constant [4]: 1.08e-06 s⁻¹

Molecule: CC(C)(C)OC(=O)N1CC2CC23C1=CC(=O)c1ccccc13 (stereo not shown) [compound 58]
k, solvolysis rate constant [4]: 1.45e-06 s⁻¹
